# In patent US6303292A, “Immunoreactive polypeptide compositions” (Chiron Corporation, priority 1998, dated 2001):
# Entries after “also recorded” stand apart in the source; their conditions may differ.
# System: antibodies in the Q1 and Q3 plasma (patient Q)
# Test: ELISA on Q1 and Q3 specific 12-mer peptides reacted with Q1 and Q3 plasma
# Type: binding, human
# Settings: for binding of plasma to the peptide versus background binding to a panel of 12 randomly chosen control peptides (Student's Test): Q1/Q3 plasma
# Protocol: Polystyrene plates (Nunc immuno plate maxisorb F96) were coated with streptavidin by incubating overnight at 4° C. with 0.1 ml/well of a 5 μg/ml solution of streptavidin (Sigma Cat. No. S4762) in 0.1 M carbonate buffer at pH 9.6. After removal of the streptavidin solution, the wells were washed four times with a 0.1% solution of Tween 20 in PBS. Nonspecific binding was blocked by incubating each well with 0.2 ml of 2% BSA in PBS for 1 h at 20° C. The wells were again washed four times with PBS/Tween 20. Plates were air-dried and stored at 4° C. until required. The streptavidin in each well was coupled to cleaved peptides by incubation with 100 μl of a 1:100 dilution of cleaved peptide solution with 0.1% BSA in PBS containing 0.1% sodium azide for 1 h at 20° C. After incubation, the plate was washed four times with PBS/Tween 20. Each well was incubated with 100 μl of a suitable dilution of serum (diluted with 2% BSA in PBS containing 0.1% sodium azide) for 1 h at 20° C. or overnight at 4° C. followed by four washes with PBS/Tween 20. Bound antibody was detected by reaction for 1 h at 20° C. in 0.1 ml conjugate. This consisted of 0.25 ml/l (a saturating level) of horseradish peroxidase-labeled goat anti-rabbit IgG (H+L) (Kirkegaard and Perry Labs, Gaithersburg, Md.) in CASS (0.1% sheep serum, 0.1% Tween 20, 0.1% sodium caseinate diluted in 0.1M PBS, pH 7.2). The wells were washed 2 times with PBS/Tween 20 followed by two washes with PBS only. The presence of enzyme was detected by reaction for 45 min at 20° C. with 0.1 ml of a freshly-prepared solution containing 50 mg of ammonium 2,2'azino-bis[3-ethylbenzothiazoline-6-sulphonate (ABTS, Boehringer Mannheim Cat. no. 122661) and 0.03 ml of 35% (w/w) hydrogen peroxide solution in 100 ml of 0.1 M phosphate/0.08 M citrate buffer, pH 4.0. Color development was measured in a Titertek Multiscan MC plate reader in the dual wavelength mode at 405 nm against a reference wavelength of 492 nm.
# To examine the effect of the amino acid substitutions observed in the Q1 and Q3 E2 HV domains on antibody binding, we synthesized a Q1 and Q3 specific 12-mer peptide from amino acids 396 to 407 (HVE Q1 or Q3 in FIG. 7B) and separately reacted the Q1 and Q3 plasma with each peptide in an ELISA.
Sequence,binding of plasma to the peptide versus background binding to a panel of 12 randomly chosen control peptides (Student's Test),"reaction of antibodies in patient Q plasma with the peptide in ELISA (Q1 and Q3 plasma, peptides amino acids 396-407)","Elisa Results on 12-mer Peptides, Mean (Q1 plasma)","Elisa Results on 12-mer Peptides, Mean (Q3 plasma)"
"TARFAGFFQSGA [Q1 peptide, Q1 specific 12-mer peptide from amino acids 396 to 407 of the HCV E2/NS1 HV domain]",significantly above background binding,reacted with the Q1 peptide; also recorded: developed an antibody response to the Q1 peptide,1.158,1.022
"TAGFVRLFETGP [Q3 peptide, Q3 specific 12-mer peptide from amino acids 396 to 407 of the HCV E2/NS1 HV domain]",not statistically significant,,0.691,0.693
